Reference: patent publication US6545152B1, “R-isomers of nonnucleoside inhibitors” (Parker Hughes Institute, priority 2000, dated 2003)
Several values for one entry are separate records, joined by “and”; a condition that tells them apart may be missing. Identical values can stand only once. Like-named read-outs stand apart in the source and are kept apart here.

What was measured:
HIV-1 strain HTLVIIIB = assay: p24 antigen assay of HIV-1 replication in human PBMC; type: cell-based; conditions: read-out: IC50 HTLVIIIB
Method: The HIV-1 strain HTLVIIIB (kindly provided by Dr. Neal T. Wetherall, VIROMED Laboratories, Inc.), was propagated in CCRF-CEM cells, and used in in vitro assays of the anti-HIV-1 activity of the synthesized compounds of the invention. Cell-free supernatants of HTLVIIIB-infected CCRF-CEM cells were harvested, dispensed into 1 ml aliquots, and frozen at −70° C.
The incubated cells were then exposed to HIV-1 at a multiplicity of infection (MOI) of 0.1 during a one-hour adsorption period at 37° C. in a humidified 5% CO2 atmosphere. Subsequently, infected cells were cultured in 96-well microtiter plates (100 μl/well; 2×10^6 cells/ml) in the presence of test compounds, including appropriate controls. Aliquots of culture supernatants were removed from the wells on the seventh day after infection for p24 antigen assays. […] Ag.
(§1) The applied p24 enzyme immunoassay (EIA) was the unmodified kinetic assay commercially available from Coulter Corporation/Immunotech, Inc. (Westbrooke, Me.). In the assay, a murine monoclonal antibody against HIV core protein is coated onto microwell strips. Antigen (HIV core protein) present in the test culture supernatant samples binds the antibody and the bound antibody-antigen complex is quantitated. Percent viral inhibition was calculated by comparing the p24 values from the test substance-treated infected cells with p24 values from untreated infected cells (i.e., virus controls).

[1] = test system: multidrug resistant HIV-1 strain RT-MDR (V106A, 74V, 41L, 215Y); assay: microbe, parasite or virus in culture; type: cell-based
[2] = test system: HIV-1 strain A17 variant (Y181C plus K103N); assay: microbe, parasite or virus in culture; type: cell-based
Method: (§2) Normal human peripheral blood mononuclear cells (PBMNC) from HIV-negative donors were cultured 72 hours in RPMI 1640 supplemented with 20%(v/v) heat-inactivated fetal bovine serum (FBS), 3% interleukin-2, 2 mM L-glutamine, 25 mM HEPES, 2 g/L NaHCO3, 50 μg/ml gentamicin, and 4 μg/ml phytohemagglutinin prior to exposure to HIV-1. The incubated cells were then exposed to HIV-1 at a multiplicity of infection (MOI) of 0.1 during a one-hour adsorption period at 37° C. in a humidified 5% CO2 atmosphere. Subsequently, infected cells were cultured in 96-well microtiter plates (100 μl/well; 2×10^6 cells/ml) in the presence of test compounds, including appropriate controls. Aliquots of culture supernatants were removed from the wells on the seventh day after infection for p24 antigen assays. The methods used in the P24 assay were as previously described in Uckun, et al., Antimicrobial Agents and Chemotherapy, 1998, 42, 383; Zarling, et al., Nature, 1990, 347, 92-95; Erice, et al., Antimicrob. Ag. Chemother., 1993, 37, 835.
as §1

[3] = test system: NNI-resistant HIV-1 strain A17 (Y181C); assay: microbe, parasite or virus in culture; type: cell-based
Method: as §2, §1

[4] = target: T1, recombinant HIV-1 reverse transcriptase (rRT) (Human immunodeficiency virus type 1 group M subtype B, UniProt P04585); assay: Cell-free RT inhibition assay (Quan-T-RT, scintillation proximity); type: biochemical
T1 construct: recombinant HIV-1 reverse transcriptase (rRT)
Method: In addition, the activity of the test compounds to inhibit recombinant HIV-1 reverse transcriptase (rRT) activity was determined using the Quan-T-RT assay system (Amersham, Arlington Heights, Ill.), which utilizes the scintillation proximity assay principle. […] Data for both bioassays is reported as IC50 values.

[5] = Human immunodeficiency virus 1, PBMC, human PBMC, p24
[6] = Human immunodeficiency virus 1, H9, read-out: IC50 RT-MDR
[7] = Human immunodeficiency virus 1, read-out: IC50 A17 (second column; A17 variant)
[8] = Human immunodeficiency virus 1, read-out: IC50 A17
[9] = Human immunodeficiency virus 1, 168 h, read-out: IC50 A17 (second column; A17 variant)

| SMILES | IC50 (HIV-1 strain HTLVIIIB; [5]) [nM] | IC50 [1, 6] [nM] | IC50 [2, 7] [nM] | IC50 [3, 8] [nM] | melting point [°C] | IC50 (HIV-1 strain HTLVIIIB; human PBMC, p24) [nM] | IC50 [4] | further results |
| --- | --- | --- | --- | --- | --- | --- | --- | --- |
| C[C@@H](NC(=S)Nc1ccc(Cl)cn1)c1ccccc1 [PHI-512^R] | 10 | 10 | 10200 | 200 | 185 to 187.5 |  |  |  |
| C[C@@H](NC(=S)Nc1ccc(Br)cn1)C1CCCCC1 [PHI-509^R, N-[1-(1-(1R)-Cyclohexylethyl)]-N-[2-(5-bromopyridyl)] thiourea] |  | 200 |  | 400 | 176 to 177 | 1 |  | IC50 (HIV-1 strain HTLVIIIB; human PBMC, p24, listed as PHI-509^S): > 1000 nM; IC50 [2, 9]: 10000 nM |
| Cc1ccnc2c1NC(=O)c1cccnc1N2C1CC1 [Nevirapine, reference compound] | 34 | 5000 | > 100000 | > 100000 |  |  |  |  |
| C[C@@H](NC(=S)Nc1ccc(Br)cn1)c1ccccc1 [PHI-511^R] |  | 5 | 2700 | 10 | 170 to 172 | 10 |  | IC50 (HIV-1 strain HTLVIIIB; human PBMC, p24, listed as PHI-511^S): > 1000 nM; times more active than delavirdine ([1]; RT-MDR): 80 times; times more active than nevirapine ([1]; RT-MDR): 1,000 times; times more active than trovirdine ([1]; RT-MDR): 4 times; times more active than HI-240 ([3]; A17): 20 times; times more active than delavirdine ([3]; A17): 5,000 times; times more active than nevirapine ([3]; A17): 10,000 times; times more active than trovirdine ([3]; A17): 50 times |
| Fc1ccccc1CCNC(=S)Nc1ccc(Br)cn1 [HI-240, reference compound] |  |  |  |  |  | < 1 | 600 nM | IC50 ([1]; H9 cells, read-out: IC50 RT-MDR): 5 nM; IC50 ([2]; Y181C plus K103N mutations, read-out: IC50 A17 (second column; A17 variant)): 41000 nM; IC50 ([3]; Y181C mutation, read-out: IC50 A17): 200 nM |
| CC(NC(=S)Nc1ccc(Cl)cn1)C1CCCCC1 (stereo not shown) [PHI-510^R] |  | 60 | 8200 | 70 |  |  |  |  |
| CC(C)Nc1cccnc1N1CCN(C(=O)c2cc3cc(NS(C)(=O)=O)ccc3[nH]2)CC1 [Delavirdine, reference compound] | 9 | 400 | > 100000 | 50000 |  |  |  | IC50 [2, 9]: > 100000 nM |
| S=C(NCCc1ccccn1)Nc1ccc(Br)cn1 [Trovirdine, reference compound] |  | 20 | > 100000 | 500 |  |  |  | IC50 (HIV-1 strain HTLVIIIB; Human immunodeficiency virus 1, PBMC): 7 nM; IC50 [2, 9]: > 100000 nM |
| C[C@@H](NC(=S)Nc1nccs1)C1CCCCC1 [PHI-513^R, N-[1-(1-(1R)-Cyclobexyl)ethyl]-N′-[2-(thiazolyl)]thiourea] |  | 5600 | 5800 | 900 | 118 to 119 | 1 | 13000 nM and > 100000 nM | IC50 (HIV-1 strain HTLVIIIB; human PBMC, p24, listed as PHI-513^S): > 1000 nM |
| C[C@H](NC(=S)Nc1ccccn1)C1CCCCC1 [PHI-542] | > 1000 |  |  |  |  |  | > 100000 nM |  |
| C[C@@H](NC(=S)Nc1ccccn1)C1CCCCC1 [PHI-543] | > 1000 |  |  |  | 125 to 127 |  | > 100000 nM |  |
